Reference: patent US10953015B2, “Use of adenosine receptor signaling to regulate P-gp function” (CORNELL UNIVERSITY, priority 2016, dated 2021)

Tests used:
P-gp and MMP9 = assay: Immunoprecipitation/IFA of P-gp with MMP9 in HBMVEC; assay type: cell-based, human; conditions: 1 μM for 5 minutes
Description: FIG. 8A is a schematic diagram of the experimental procedure for analysis of Lexiscan®'s effect on P-gp solubility and excretion in primary brain endothelial cells (“HBMVEC”). FIGS. 8B-8C are western blots and graphs summarizing the experimental result of each western blot. FIGS. 8B-8C show the analysis of P-gp expression of HBMVEC upon activation with Lexiscan® at different time points after lysis with RIPA buffer (FIG. 8B) or CSK buffer to measure P-gp levels in the cytoskeletal fraction (FIG. 8C). Band intensity was normalized to GAPDH and graphed. […] Band intensity was normalized using GAPDH and plotted. FIG. 8E is a western blot of secreted P-gp in HBMVEC upon activation with Lexiscan® in absence or presence of an MMP9 inhibitor: both short and long exposures of western blot from MMP9 inhibitor-treated samples are shown. Band intensity was plotted as a graph. FIG. 8F is a western blot showing the results of an Immunoprecipitation assay of MMP9 with lysate from HBMVEC treated with vehicle (control) or 1 μM of Lexiscan® for 5 minutes. P-gp was pulled down using anti-P-gp antibody and immunoblotted with an anti-MMP9 antibody. […] FIG. 8H is a graph summarizing the intensity of fluorescence of MMP9 from FIG. 8G. Fluorescent intensity of MMP9 was quantified and plotted as graph (n=20). **P<0.01 (2-tailed Student's t test, 1 representative result of 3 different experiments). […]

P-gp [1] = assay: Ubiquitination of P-gp in primary human brain endothelial cells (immunoprecipitation, IFA); assay type: cell-based; conditions: 15 minutes
Experimental: FIG. 10A is a western blot showing immunoprecipitation analysis of ubiquitination of P-gp in human primary brain endothelial cells upon activation with Lexiscan® for 15 minutes. P-gp was pulled down with an anti-P-gp antibody and immunoblotted with an anti-ubiquitin antibody. FIG. 10B are immunofluorescence microscopy images depicting ubiquitination of P-gp in human primary brain endothelial cells upon activation with Lexiscan® for 15 minutes. Cells were fixed, permeabilized, and stained with an anti-P-gp (green) and anti-ubiquitin (red) antibody. Nucleus was counterstained with DAPI (blue). The scale bar indicates 25 μm. FIG. 10C is a schematic diagram depicting the mechanism of P-gp down-regulation by Lexiscan®. Upon activation of A2A AR, P-gp is cleaved by MMP9 and secreted to the extracellular space (a), or ubiquitinated and digested by proteasome (b), or can relocate from the soluble fraction to the insoluble fraction (c). These mechanisms may occur independently or in combination.
4 G Sepharose beads were purchased from Invitrogen and incubated with human P-gp antibody (BD Biosciences) overnight at 4° C. using a rocking shaker. Beads were washed twice using lysis buffer containing protease inhibitor, and lysates from primary brain endothelial cells were incubated overnight at 4° C. using a rocking shaker. […]

MMP9 = MMP9 in mouse brain endothelial cells after intravenous injection (IFA); assay type: in vivo; conditions: 0.05 mg/kg i.v.; 5 minutes
Experimental: Vehicle control (DMSO) or 0.05 mg/kg of Lexiscan® was injected intravenously into mice. Five minutes later, mice were sacrificed and frozen sections of the brain were stained with anti-MMP9 (red) or anti-GLUT-1 (green) antibodies. Nucleus was counterstained with DAPI (blue). The scale bar indicates 50 μm.

P-gp [2] = assay: P-gp expression in intestinal organoids (mean fluorescence intensity); assay type: cell-based; conditions: organoids from C57BL6 mouse intestine; 1 μM; 15 minutes
Experimental: Freshly isolated intestines from wildtype […] mice were cultured and grown to confluency to generate Organoids, which are 3D organotypic cultures derived from primary intestinal tissues (either tissue subunits or single cells), embryonic stem cells (“ESCs”), and induced pluripotent stem cells (“iPSCs”). Organoids were treated with 1 μM Lexiscan® or A1193 (A2A AR agonist) for 15 minutes, washed, and stained with antibodies to P-gp and DAPI. Mean fluorescent intensity was measured in each organoid. Data presented as a measure of P-gp expression between the two agonists. *=significance where P<0.05.
Applicants next evaluated whether A2A AR agonists can modulate P-gp expression in gut epithelial cells. Freshly isolated intestines from wildtype C57BL6 mice were cultured and grown to confluency to generate Organoids, which are three-dimensional organotypic cultures derived from primary intestinal tissues (either tissue subunits or single cells), embryonic stem cells (“ESCs”), or induced pluripotent stem cells (“iPSCs”). Organoids were treated with the A2A AR agonists Lexiscan® or A1193 for 15 minutes, washed, and stained with antibodies to P-gp and DAPI.

P-gp [3] = assay: P-gp expression in Caco-2 human tumor cell line (IFA MFI, western blot); assay type: cell-based; conditions: 1 μM for 30 minutes (IFA), 1, 0.5, 0.1 μM (western blot)
Experimental: FIG. 19A are fluorescence microscopy images of Caco-2 cells (originally isolated from a human primary colonic tumor) grown on coverslips and treated with Lexiscan® (1 μM) or A1193 (1 μM), or DMSO (vehicle) control for 30 minutes. Next, cells were fixed, permeabilized, and stained with an antibody to P-gp. After washing, cells were mounted with DAPI for nuclear staining. FIG. 19B is a graph of the MFI of P-gp. FIG. 19C is a graph of densitometric analysis of a western blot of Caco-2 cells treated with Lexiscan® in varying concentrations (1, 0.5, and 0.1 μM). Densitometric analysis was performed to quantify the amount of P-gp in western blot. Statistics: two tailed student's t test for FIG. 19B, *<0.5.
Applicants also evaluated whether A2A AR agonists can modulate P-gp expression in a human tumor cell line, Caco-2 cells. Briefly, Caco-2 cells (originally isolated from a human tumor) were grown on coverslips and treated with Lexiscan®, A1193, or vehicle control for 30 minutes. Cells were then fixed, permeabilized, and stained with an antibody to P-gp. After washing, cells were mounted with DAPI for nuclear staining (FIG. 19A). The mean fluorescence intensity (MFI) of P-gp was quantified and graphed in FIG. 19B.

CNC(=O)c1cnn(-c2nc(N)c3ncn([C@@H]4O[C@H](CO)[C@@H](O)[C@H]4O)c3n2)c1 [Lexiscan®, 1-[6-amino-9-[(2R,3R,4S,5R)-3,4-dihydroxy-5-(hydroxymethyl)oxolan-2-yl]purin-2-yl]-N-methylpyrazole-4-carboxamide]
Interaction between P-gp and MMP9 (P-gp and MMP9): induced rapid interaction between P-gp and MMP9
Ubiquitinylation of P-gp (P-gp [1]): induced increased ubiquitinylation of P-gp compared with vehicle control
MMP9 in mouse brain endothelial cells (MMP9): rapid increase of MMP9
P-gp expression (mean fluorescent intensity) (P-gp [2]): significantly down-regulates P-gp expression in freshly isolated and cultured colonic organoids
P-gp expression (P-gp [3]): down-regulates P-gp expression in Caco-2
